Reference: patent EP4342905B1, “1,N6-ETHENOADENOSINE DERIVATIVES FOR CANCER TREATMENT” (PHILIPPS-UNIVERSITÄT MARBURG, priority 2022, dated 2024)
Counter-ions that a name gives are not always drawn.

Assays:
[1] = logPOW determination, water/1-octanol distribution with UV/VIS readout; type: physicochemical; settings: 1 h stirring, room temperature (23 °C), ratio of maximal UV absorbances; for logP at 1 h: read-out: logPOW (measured)
Procedure: All logPOW values reported herein are determined as follows: 2 mg of the compound to be measured are distributed in a 250 ml beaker between a two-phase mixture of water (50 ml) and 1-octanol (50 ml) and stirred for 1 h on a magnetic stirrer at room temperature (23 °C). After separation of the layers, 3 ml of each phase are removed and transferred into a 3.5 ml quartz cuvette (10 x 10 mm, 3500 µl; Hellma, Darmstadt, Germany) and measured on a UV/VIS spectrometer (Cary 50, Varian, Darmstadt, Germany). From the ratio of maximal absorbances in both layers (λmax) the corresponding log10POW values are determined.

[2] = test system: Panc-1 cells; assay: CellTiter-Glo Luminescent Cell Viability Assay, Panc-1 as PDAC model; type: cell-based, human; settings: for IC50: Panc-1 cells, 72 h compound incubation, mean ± SD of at least three independent biological repeats; for activity against human Panc-1 pancreatic carcinoma cells compared to gemcitabine: comparison with gemcitabine
Procedure: The biological antitumor-activity of adenosine derivatives according to Formula I towards pancreatic ductal adenocarcinoma (PDAC) was evaluated by utilizing the established cell line Panc-1 as a PDAC model by applying the CellTiter-Glo® Luminescent Cell Viability Assay (Promega) after 72 h of compound incubation. Gemcitabine (100 µM) was used as a positive control. To analyze the cytotoxic efficacy in Panc-1 cells, dose-response curves were generated for each compound, starting from a concentration of 100 µM with serial dilution of 1:3. IC50 values are shown as arithmetic means of at least three independent biological repeats in following Table 1. Table 1: IC50-Values for the inhibition of PADC by adenosine and 1,N6-ethenoadenosine derivatives (with the respective standard deviations SD)

SMILES: CCCCCCCCCCCCCC1(CC)O[C@@H]2[C@H](O1)[C@@H](CO)O[C@H]2n1cnc2c(N)ncnc21 (stereo partly drawn) [Compound 2d, ((2R/2S,3aR,4R,6R,6aR)-6-(6-amino-9H-purin-9-yl)-2-ethyl-2-tridecyltetrahydrofuro[3,4-d][1,3]dioxol-4-yl)methanol]
- logPOW (measured) [1]: 3.60
- IC50 [2]: 14.6 ± 0.69 µM
- activity against human Panc-1 pancreatic carcinoma cells compared to gemcitabine [2]: more active

SMILES: CCCCCCCCCCCCCC1(C)O[C@@H]2[C@H](O1)[C@@H](CO)O[C@H]2n1cnc2c(N)ncnc21 (stereo partly drawn) [Compound 2c, ((2R/2S,3aR,4R,6R,6aR)-6-(6-amino-9H-purin-9-yl)-2-methyl-2-tridecyltetrahydrofuro[3,4-d][1,3]dioxol-4-yl)methanol]
- logPOW (measured) [1]: 2.83

SMILES: CCCCCCCCC1(CCCCCCCC)O[C@@H]2[C@H](O1)[C@@H](CO)O[C@H]2n1cnc2c1ncn1ccnc21 [Compound 4b, ((3aR,4R,6R,6aR)-6-(3H-imidazo[2,1-i]purin-3-yl)-2,2-dioctyitetrahydrofuro[3,4-d][1,3]dioxol-4-yl)methanol Hydrochloride]
- logPOW (measured) [1]: 2.57
- logP at 1 h [1]: 2.57
- IC50 ([2]; Homo sapiens): 16.2 ± 1.35 µM
- activity against human Panc-1 pancreatic carcinoma cells compared to gemcitabine [2]: more active

SMILES: CCCCCCCCCCCCCC1(C)O[C@@H]2[C@H](O1)[C@@H](CO)O[C@H]2n1cnc2c(N)ncnc21.Cl (stereo partly drawn) [Compound 4c, ((2R/2S,3aR,4R,6R,6aR)-6-(6-amino-9H-purin-9-yl)-2-methyl-2-tridecyltetrahydrofuro[3,4-d][1,3]dioxol-4-yl)methanol Hydrochloride]
- logPOW (measured) [1]: 2.75
- IC50 [2]: 30.6 ± 2.53 µM
- activity against human Panc-1 pancreatic carcinoma cells compared to gemcitabine [2]: more active

SMILES: CCCCCCCCC1(CCCCCCCC)O[C@@H]2[C@H](O1)[C@@H](CO)O[C@H]2n1cnc2c(N)ncnc21 [Compound 2b, ((3aR,4R,6R,6aR)-6-(6-amino-9H-purin-9-yl)-2,2-dioctyltetrahydrofuro[3,4-d][1,3]dioxol-4-yl)methanol]
- logPOW (measured) [1]: 3.86
- logP at 1 h [1]: 3.86

SMILES: CCCCCCCC1(CCCCCCC)O[C@@H]2[C@H](O1)[C@@H](CO)O[C@H]2n1cnc2c1ncn1ccnc21.Cl [Compound 4a, ((3aR,4R,6R,6aR)-6-(3H-imidazo[2,1-i]purin-3-yl)-2,2-diheptyltetrahydrofuro[3,4-d][1,3]dioxol-4-yl)methanol Hydrochloride]
- logPOW (measured) [1]: 2.40
- logP at 1 h [1]: 2.4
- IC50 ([2]; Homo sapiens): 17.1 ± 3.14 µM

SMILES: Cl.OC[C@H]1O[C@@H](n2cnc3c2ncn2ccnc32)[C@@H]2OC3(CCCCCCCCCCCCCC3)O[C@@H]21 [Compound 5, ((3a'R,4'R,6'R,6a'R)-4'-(3H-imidazo[2,1-i]purin-3-yl)tetrahydrospiro[cyclopentadecane-1,2'-furo[3,4-d][1,3]dioxol]-6'-yl)methanol Hydrochloride]
- logPOW (measured) [1]: 1.67
- logP at 1 h [1]: 1.67
- IC50 ([2]; Homo sapiens): 23.1 ± 3.6 µM

SMILES: CCCCCCCC1(CCCCCCC)O[C@@H]2[C@H](O1)[C@@H](CO)O[C@H]2n1cnc2c(N)ncnc21 [Compound 2a, ((3aR,4R,6R,6aR)-6-(6-amino-9H-purin-9-yl)-2,2-diheptyltetrahydrofuro[3,4-d][1,3]dioxol-4-yl)methanol]
- logPOW (measured) [1]: 2.82
- logP at 1 h [1]: 2.82
- IC50 ([2]; Homo sapiens): 14.58 ± 0.14 µM
- activity against human Panc-1 pancreatic carcinoma cells compared to gemcitabine [2]: more active

SMILES: CCCCCCCCCCCCCC1(CC)O[C@@H]2[C@H](O1)[C@@H](CO)O[C@H]2n1cnc2c1ncn1ccnc21.Cl (stereo partly drawn) [Compound 4d, ((2R/2S,3aR,4R,6R,6aR)-6-(3H-imidazo[2,1-i]purin-3-yl)-2-ethyl-2-tridecyltetrahydrofuro[3,4-d][1,3]dioxol-4-yl)methanol Hydrochloride]
- logPOW (measured) [1]: 2.29
- IC50 [2]: 16 ± 4.31 µM
